# Source: patent publication US10131634B2, “Method of treating pain” (Poseida Therapeutics, Inc., priority 2011, dated 2018)
# How the values were obtained:
# wild type rats [1] = assay: Side effects in wild type rats dosed with compound; format: in vivo, rat
# Protocol: The quinoline structure Formula 1a is tested in cells and rats.
# wild type rats [2] = assay: Pain related behaviours after colon mustard (MO) infusion in wild type rats; format: in vivo, rat
Structure (SMILES),cardiotoxicity (wild type rats [1]),side effects (wild type rats [1]),"inhibition of pain (wild type rats [2]; colon mustard infusion, FIG. 1 (lower body licking))","doses to inhibit pain related behaviors induced by intracolonic MO infusion (morphine equivalency) (wild type rats [2]; pre-treatment, s.c., FIGS. 7-9)"
Cc1cc(N2CCCCC2)nc2ccccc12 [Formula 1a],no cardiotoxicity,no obvious side effects,dose responsive inhibition of pain,–
"CN1CC[C@]23c4c5ccc(O)c4O[C@H]2[C@@H](O)C=C[C@H]3[C@H]1C5 [morphine, reference compound]",–,–,–,requires much higher doses
